{"source": "ChEMBL document CHEMBL1201862", "about": "“PubChem BioAssay data set” (2004)", "key": {"Cytochrome P450 2C19": {"biological_target": "Cytochrome P450 2C19 (Homo sapiens, UniProt P33261)", "sequence (P33261 whole entry)": "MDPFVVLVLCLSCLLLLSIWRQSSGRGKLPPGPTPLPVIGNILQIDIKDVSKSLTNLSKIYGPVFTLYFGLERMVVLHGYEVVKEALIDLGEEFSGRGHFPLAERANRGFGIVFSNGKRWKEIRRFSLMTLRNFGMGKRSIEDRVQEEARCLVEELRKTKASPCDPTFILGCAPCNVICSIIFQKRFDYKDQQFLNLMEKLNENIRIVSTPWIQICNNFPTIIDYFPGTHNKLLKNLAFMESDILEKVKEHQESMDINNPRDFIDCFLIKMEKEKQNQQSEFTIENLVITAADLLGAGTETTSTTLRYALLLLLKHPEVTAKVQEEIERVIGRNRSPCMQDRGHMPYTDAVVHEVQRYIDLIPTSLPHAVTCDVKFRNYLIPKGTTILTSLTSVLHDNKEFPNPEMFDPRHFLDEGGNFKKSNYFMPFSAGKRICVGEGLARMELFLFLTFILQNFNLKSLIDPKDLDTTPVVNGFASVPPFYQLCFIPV", "test": "qHTS Assay for Inhibitors and Substrates of Cytochrome P450 2C19. [Related pubchem assays: 410 ]", "type": "ADME", "details": "read-out: Potency"}, "Cytochrome P450 2D6": {"biological_target": "Cytochrome P450 2D6 (Homo sapiens, UniProt P10635)", "sequence (P10635 whole entry)": "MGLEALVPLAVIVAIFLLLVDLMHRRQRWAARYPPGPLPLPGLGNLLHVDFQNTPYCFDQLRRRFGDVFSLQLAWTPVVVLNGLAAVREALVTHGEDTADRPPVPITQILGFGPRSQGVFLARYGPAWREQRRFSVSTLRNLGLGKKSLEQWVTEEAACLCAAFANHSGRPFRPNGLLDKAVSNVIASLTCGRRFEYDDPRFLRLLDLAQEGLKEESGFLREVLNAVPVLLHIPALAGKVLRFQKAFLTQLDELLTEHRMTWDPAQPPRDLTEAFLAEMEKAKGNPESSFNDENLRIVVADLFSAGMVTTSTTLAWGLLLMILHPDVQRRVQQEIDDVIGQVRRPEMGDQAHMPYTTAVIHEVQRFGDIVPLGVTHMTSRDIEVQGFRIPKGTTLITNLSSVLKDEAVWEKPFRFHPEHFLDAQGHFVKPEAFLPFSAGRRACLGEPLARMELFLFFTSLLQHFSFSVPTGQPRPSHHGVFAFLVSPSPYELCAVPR", "test": "qHTS Assay for Inhibitors and Substrates of Cytochrome P450 2D6. [Related pubchem assays: 410 ]", "type": "ADME", "details": "read-out: Potency"}, "Cytochrome P450 2C9": {"biological_target": "Cytochrome P450 2C9 (Homo sapiens, UniProt P11712)", "sequence (P11712 whole entry)": "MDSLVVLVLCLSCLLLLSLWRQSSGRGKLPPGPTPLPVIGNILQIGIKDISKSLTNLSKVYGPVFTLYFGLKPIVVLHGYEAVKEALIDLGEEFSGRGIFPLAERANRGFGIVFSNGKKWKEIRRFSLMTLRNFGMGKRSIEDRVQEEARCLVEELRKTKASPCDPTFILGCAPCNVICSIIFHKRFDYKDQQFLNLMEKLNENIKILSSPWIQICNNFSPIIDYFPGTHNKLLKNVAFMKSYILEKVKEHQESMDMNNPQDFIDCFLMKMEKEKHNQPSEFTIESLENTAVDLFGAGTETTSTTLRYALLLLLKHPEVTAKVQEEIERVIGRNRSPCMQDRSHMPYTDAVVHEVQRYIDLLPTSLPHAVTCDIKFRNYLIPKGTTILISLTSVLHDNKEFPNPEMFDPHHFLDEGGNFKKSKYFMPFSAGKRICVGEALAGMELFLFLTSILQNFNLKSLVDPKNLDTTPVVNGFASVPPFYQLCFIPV", "details": "Potency"}, "Estrogen receptor beta [1]": {"biological_target": "T1, Estrogen receptor beta (Homo sapiens, UniProt Q92731)", "T1 sequence (Q92731 whole entry)": "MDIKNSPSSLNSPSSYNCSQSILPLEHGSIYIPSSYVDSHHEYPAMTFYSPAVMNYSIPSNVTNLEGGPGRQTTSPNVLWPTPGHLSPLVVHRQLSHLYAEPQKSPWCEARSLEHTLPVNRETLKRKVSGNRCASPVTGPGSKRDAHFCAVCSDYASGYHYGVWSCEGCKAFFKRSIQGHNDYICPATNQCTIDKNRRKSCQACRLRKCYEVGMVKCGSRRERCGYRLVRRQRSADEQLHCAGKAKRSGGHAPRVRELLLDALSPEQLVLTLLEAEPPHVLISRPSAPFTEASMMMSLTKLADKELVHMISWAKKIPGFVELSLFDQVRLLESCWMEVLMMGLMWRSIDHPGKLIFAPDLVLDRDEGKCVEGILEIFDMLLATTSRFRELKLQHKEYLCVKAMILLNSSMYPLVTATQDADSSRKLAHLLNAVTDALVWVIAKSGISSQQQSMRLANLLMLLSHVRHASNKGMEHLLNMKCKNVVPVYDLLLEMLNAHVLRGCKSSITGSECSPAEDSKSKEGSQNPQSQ"}, "Estrogen receptor beta [2]": {"biological_target": "T1, Estrogen receptor beta", "test": "ERβ–SRC-3 coactivator interaction inhibitors, confirmation, orthogonal assay, biochemical, ELISA, streptavidin-HRP readout (AID 1060)"}, "[3]": {"test": "Luminescence Cell-Based Dose Confirmation HTS to Identify Inhibitors of Polyadenylation.", "type": "functional"}, "Leucine aminopeptidase": {"biological_target": "T2, Leucine aminopeptidase (Plasmodium falciparum 3D7, UniProt Q8IL11)", "T2 sequence (Q8IL11 whole entry)": "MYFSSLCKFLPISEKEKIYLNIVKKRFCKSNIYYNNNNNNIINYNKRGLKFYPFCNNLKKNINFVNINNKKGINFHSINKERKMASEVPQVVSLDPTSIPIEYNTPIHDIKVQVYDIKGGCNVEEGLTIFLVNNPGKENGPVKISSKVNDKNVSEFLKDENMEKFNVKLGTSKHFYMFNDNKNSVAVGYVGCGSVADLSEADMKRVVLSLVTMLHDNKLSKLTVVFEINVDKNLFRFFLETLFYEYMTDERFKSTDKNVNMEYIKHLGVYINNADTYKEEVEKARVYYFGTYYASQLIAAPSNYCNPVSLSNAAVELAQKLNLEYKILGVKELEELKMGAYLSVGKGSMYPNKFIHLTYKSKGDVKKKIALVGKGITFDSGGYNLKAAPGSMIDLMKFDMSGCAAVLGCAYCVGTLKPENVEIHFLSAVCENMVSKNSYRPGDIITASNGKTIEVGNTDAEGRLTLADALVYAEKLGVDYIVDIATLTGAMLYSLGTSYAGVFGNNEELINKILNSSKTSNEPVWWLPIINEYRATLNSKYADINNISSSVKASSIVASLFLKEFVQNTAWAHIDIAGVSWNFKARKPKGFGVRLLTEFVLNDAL", "test": "P. falciparum M17LAP inhibitors, primary screen, biochemical, fluorogenic H-Leu-NHMec substrate, 1536-well (AID 1619)", "type": "functional"}, "Aspartyl aminopeptidase": {"biological_target": "T3, Aspartyl aminopeptidase (Plasmodium falciparum 3D7, UniProt Q8I2J3)", "T3 sequence (Q8I2J3 whole entry)": "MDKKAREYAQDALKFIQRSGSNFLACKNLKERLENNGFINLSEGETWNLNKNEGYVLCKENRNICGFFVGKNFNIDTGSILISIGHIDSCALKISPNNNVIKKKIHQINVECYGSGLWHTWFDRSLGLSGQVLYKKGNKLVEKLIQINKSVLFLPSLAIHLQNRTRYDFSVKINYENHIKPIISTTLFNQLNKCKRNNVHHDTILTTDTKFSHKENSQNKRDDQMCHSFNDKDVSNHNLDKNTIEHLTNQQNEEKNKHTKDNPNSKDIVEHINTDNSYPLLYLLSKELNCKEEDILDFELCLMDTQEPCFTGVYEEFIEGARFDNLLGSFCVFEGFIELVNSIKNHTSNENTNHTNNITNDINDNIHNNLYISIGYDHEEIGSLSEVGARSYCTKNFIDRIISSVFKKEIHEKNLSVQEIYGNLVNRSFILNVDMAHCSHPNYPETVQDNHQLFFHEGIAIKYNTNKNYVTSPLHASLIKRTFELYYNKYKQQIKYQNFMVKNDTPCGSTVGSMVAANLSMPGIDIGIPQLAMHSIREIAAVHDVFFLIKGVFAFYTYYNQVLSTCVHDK", "test": "Counterscreen for inhibitors of M1 and M17 aminopeptidases: QFRET-based biochemical high throughput dose response assay for inhibitors of the Plasmodium falciparum M18 Aspartyl Aminopeptidase (PFM18AAP). [Related PubChem assays: 1619 (Screening assay (M17LAP inhibitors).), 1445 (Screening assay (M1AAP inhibitors).)]"}, "Procathepsin L": {"biological_target": "Procathepsin L (Homo sapiens, UniProt P07711)", "sequence (P07711 whole entry)": "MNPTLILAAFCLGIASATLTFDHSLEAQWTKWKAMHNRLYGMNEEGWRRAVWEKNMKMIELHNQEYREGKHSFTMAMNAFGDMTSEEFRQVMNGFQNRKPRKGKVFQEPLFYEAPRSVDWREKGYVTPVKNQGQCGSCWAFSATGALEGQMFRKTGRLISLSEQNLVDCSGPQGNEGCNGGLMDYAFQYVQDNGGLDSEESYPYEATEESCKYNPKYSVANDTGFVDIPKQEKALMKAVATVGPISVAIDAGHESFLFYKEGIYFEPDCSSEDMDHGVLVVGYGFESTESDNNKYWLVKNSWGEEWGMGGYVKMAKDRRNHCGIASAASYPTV", "test": "cathepsin L inhibitors, dose response, counter-screen for M1/M17 aminopeptidase inhibitor project, biochemical, QFRET, 1536-well (AID 2214)"}}, "note": "Activity calls are given as the source filed them."}
{"molecule": "COC(=O)NC(c1ccco1)C(C(C)=O)C(=O)OC", "note": "(centres undefined)", "values": [{"measurement": "AC50", "setting": "Cytochrome P450 2C19", "value": "6.31 µM (inconclusive)"}, {"measurement": "AC50", "setting": "Cytochrome P450 2D6", "value": "3.16 µM (inconclusive)"}, {"measurement": "AC50", "setting": "Cytochrome P450 2C9", "value": "1 µM (inconclusive)"}]}
{"molecule": "c1ccc(-c2nnc3sc(Cc4cccs4)nn23)cc1", "values": [{"measurement": "IC50", "setting": "Estrogen receptor beta [1]", "value": "21.6 µM (active)"}, {"measurement": "IC50", "setting": "Estrogen receptor beta [2]", "value": "> 109 µM (not active)"}]}
{"molecule": "CCCCCCCCCCCC(=O)N/N=C/c1ccco1", "values": [{"measurement": "EC50", "setting": "[3]", "value": "> 120 µM (not active)"}]}
{"molecule": "COC(=O)c1c(NC(=O)C2CC=CCC2C(=O)O)sc(C)c1C", "note": "(centres undefined)", "values": [{"measurement": "IC50", "setting": "Leucine aminopeptidase", "value": "4.32 µM (active)"}, {"measurement": "IC50", "setting": "Aspartyl aminopeptidase", "value": "> 73.5 µM (not active)"}, {"measurement": "IC50", "setting": "Procathepsin L", "value": "> 59.6 µM (not active)"}]}
